Data published in patent US12162859B2, “Crystalline and amorphous forms of a compound for the targeted degradation of estrogen receptor” (Arvinas Operations, Inc., priority 2020, dated 2024).
Converted amounts (≈) assume the structure as drawn.

Legend:
Type in all cases: physicochemical
[1] = 1 week stability of Form I under storage conditions
[2] = Thermodynamic solubility of Form I in solvents and aqueous pH media; conditions: for solubility thermodynamic: thermodynamic from solid
[3] = Relative stability of the four identified polymorphic forms
Description: A summary of the relevant characteristics of Form I is found below in Table 10: […]

[4] = Hygroscopicity (DVS water uptake at 90% RH)

Structure (SMILES): O=C1CC[C@H](N2Cc3cc(N4CCN(CC5CCN(c6ccc([C@@H]7c8ccc(O)cc8CC[C@@H]7c7ccccc7)cc6)CC5)CC4)ccc3C2=O)C(=O)N1 [Form I, (S)-3-(5-(4-((1-(4-((1R,2S)-6-hydroxy-2-phenyl-1,2,3,4-tetrahydronaphthalen-1-yl)phenyl)piperidin-4-yl)methyl)piperazin-1-yl)-1-oxoisoindolin-2-yl)piperidine-2,6-dione]
- 1 Week Stability, solid form ([1]; 40° C./75% RH): Form I
- 1 Week Stability, solid form ([1]; 80° C.): Form I
- 1 Week Stability, solid form ([1]; Ambient): Form I
- Solid form recovered in thermodynamic solubility test ([2]; 1-Butanol): Form I
- solubility thermodynamic ([2]; 1-butanol, organic solvent or mixture): 500 µg/mL (≈ 691 µM)
- Solid form recovered in thermodynamic solubility test ([2]; Acetone): Form I (PO)
- solubility thermodynamic ([2]; DCM:methanol (90:10 v/v), organic solvent or mixture): > 67000 µg/mL
- Solid form recovered in thermodynamic solubility test ([2]; Dichloromethane): Form I (PO)
- Solid form recovered in thermodynamic solubility test ([2]; Ethanol): Form I
- Solid form recovered in thermodynamic solubility test ([2]; Methanol): Form I
- solubility thermodynamic ([2]; N,N′-dimethylacetamide, organic solvent or mixture): > 100000 µg/mL
- solubility thermodynamic ([2]; THF, organic solvent or mixture): > 67000 µg/mL
- solubility thermodynamic ([2]; acetone, organic solvent or mixture): 4000 µg/mL (≈ 5530 µM)
- solubility thermodynamic ([2]; aqueous pH medium, pH 1, simulated gastric fluid): 100 µg/mL (≈ 138 µM)
- solubility thermodynamic ([2]; aqueous pH medium, pH 4, aqueous buffer): < 50 µg/mL
- solubility thermodynamic ([2]; aqueous pH medium, pH 5, aqueous buffer): < 50 µg/mL
- solubility thermodynamic ([2]; aqueous pH medium, pH 6, aqueous buffer): < 50 µg/mL
- solubility thermodynamic ([2]; dichloromethane, organic solvent or mixture): 14800 µg/mL (≈ 20400 µM)
- solubility thermodynamic ([2]; ethanol, organic solvent or mixture): 800 µg/mL (≈ 1110 µM)
- solubility thermodynamic ([2]; methanol, organic solvent or mixture): 1100 µg/mL (≈ 1520 µM)
- Solid form recovered in thermodynamic solubility test ([2]; pH 1): Form I
- Solid form recovered in thermodynamic solubility test ([2]; pH 4): Amorphous
- Solid form recovered in thermodynamic solubility test ([2]; pH 5): Form I
- Solid form recovered in thermodynamic solubility test ([2]; pH 6): Form I
- Stability relative to the other identified forms [3]: most stable
- Hygroscopicity (water uptake at 90% RH) ([4]; 90% RH): 1.7%
- hygroscopicity ([4]; at 90% RH): 1.7 wt. %
- Post-DVS XRPD ([4]; solid form by XRPD after DVS): Form I
